# Results published in patent publication US10456443B2, “Peptidyl calcineurin inhibitors” (OHIO STATE INNOVATION FOUNDATION, priority 2014, dated 2019).
# Non-standard residues stand in square brackets, D forms with d. Residues, ends and D or L forms follow the SMILES beside them. Tle = CC(C)(C)[C@H](N)C(=O)O
# Experiments:
# [1] = Cellular uptake of cell penetrating peptides; assay type: cell-based; settings: versus R11
# calcineurin (CN) [2] = biological target: T1, calcineurin (CN) (Homo sapiens, UniProt Q08209); settings: read-out: IC50, inhibition of the binding of FITC-ZIZIT to CN; FITC-ZIZIT 100 nM, CN 150 nM, unlabeled competing peptide 0-20 μM
# calcineurin (CN) [3] = biological target: T1, calcineurin (CN)
# [4] = test system: HeLa cells stably transfected with GFP-NFAT; test: GFP-NFAT translocation assay, live-cell confocal microscopy; settings: 500 nM peptide, 2 h preincubation, 10 min ionomycin stimulation
# macrophage cells = test: Inflammatory cytokine production in macrophage cells with LPS stimulation; assay type: cell-based
# T1 sequence (Q08209 2-347 limits assumed): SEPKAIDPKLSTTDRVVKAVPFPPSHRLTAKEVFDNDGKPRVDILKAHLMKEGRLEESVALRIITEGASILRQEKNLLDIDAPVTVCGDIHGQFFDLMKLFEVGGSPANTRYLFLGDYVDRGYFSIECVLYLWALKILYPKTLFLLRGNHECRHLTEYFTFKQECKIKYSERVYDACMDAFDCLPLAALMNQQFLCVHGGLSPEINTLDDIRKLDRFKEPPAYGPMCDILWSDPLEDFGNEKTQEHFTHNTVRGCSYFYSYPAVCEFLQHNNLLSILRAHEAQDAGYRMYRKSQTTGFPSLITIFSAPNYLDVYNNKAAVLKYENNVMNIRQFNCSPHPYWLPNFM
compound,measurement,setting,value
cyclo(fΦRrRrQ) [CP9],fold more active than R11 for cellular uptake,[1],approximately 12 fold
"CC[C@H](C)[C@H](NC(=O)[C@@H](NC(=O)[C@@H](NC(=O)[C@@H](NC(=O)[C@@H]1CCCN1C(=O)[C@H](Cc1c[nH]cn1)NC(=O)[C@@H]1CCCN1C(=O)CN)C(C)(C)C)[C@@H](C)CC)C(C)(C)C)C(=O)N[C@H](C(=O)NCC(=O)N1CCC[C@H]1C(=O)N[C@@H](Cc1c[nH]cn1)C(=O)N[C@@H](CCC(=O)O)C(=O)N[C@@H](CCC(=O)O)C(N)=O)[C@@H](C)O [ZIZIT, GPHPZIZITGPHEE] (H-GPHP[Tle]I[Tle]ITGPHEE-NH2)",IC50,calcineurin (CN) [2],0.28 ± 0.09 µM
same,fold higher affinity for CN than VIVIT,calcineurin (CN) [3]; ZIZIT versus VIVIT,10 fold
same,Kd,"calcineurin (CN) [3]; read-out: KD against CN, FA assay, N-terminal 5(6)-SFX labeled peptides (100 nM)",0.043 ± 0.012 µM
"Ac-RRRRRRRRRRRC-SPDP-GPHPZIZITG-Cys(Ψ^Me,MePro)-HEEG-Propyl [R11-ZIZIT-cisPro]",inhibition of the nuclear translocation of GFP-NFAT,[4],~95%
same,attenuating the production of inflammatory cytokines,"macrophage cells; macrophages, 1 μM, compared with 50 μM R11-VIVIT",significantly more effective than 50 μM R11-VIVIT
same,fold more potent than R11-VIVIT in cellular assays,macrophage cells; versus R11-VIVIT,approximately 100 fold
